Data reported in patent US4049660A, “N-substituted derivatives of 4 (N-piperazinylmethyl) spiro dibenzocycloheptadi- (or tri-) ene-5, 2-dioxolane (1,3) their method of preparation and their application in therapeutics” (Delalande S.A., priority 1971, dated 1977).
Read-outs that look alike come from different tables or passages of the source.

Experiments:
[1] = system: isolated duodenum of a rat (barium chloride); experiment: Spasmolytic: contraction by barium chloride of isolated duodenum of a rat
Procedure: Compounds of formula I, introduced in the survival medium, are capable of opposing the contacting action of barium chloride on the isolated duodenum of a rat. This activity is determined either by taking papaverine as the standard or by calculating the DE50 of the compound tested.

[2] = system: painful stretchings following intraperitoneal injection of acetic acid; experiment: Analgesic: painful stretchings following intraperitoneal acetic acid in mouse; assay type: in vivo; settings: 100 mg/kg/PO, read-out: Percentage reduction in the number of painful stretchings
From the text: The compounds of formula (I) administered orally to a mouse are capable of reducing the number of painful stretchings following the intraperitoneal injection of acetic acid.

[3] = system: ventricular fibrillations caused by inhaling chloroform; experiment: Antiarythmic: ventricular fibrillations caused by inhaling chloroform in mouse; assay type: in vivo; settings: ip, intraperitoneal, read-out: Antagonism to fibrillations caused by chloroform with a mouse, DE50
From the text: Administered intraperitoneally, the compounds of formula (I) are able to protect the mouse against ventricular fibrillations caused by inhaling chloroform.

[4] = system: gastric ulcers (Shay ulcers); experiment: Antiulcerous: gastric ulcers caused in a rat by ligature of the pylorus (Shay ulcers); assay type: in vivo; settings: 50 mg/kg, intraduodenal
Procedure: Compounds of formula (I) administered intraduodenally reduce the size of gastric ulcers caused in a rat by ligature of the pylorus (Shay ulcers). As examples, the intradeuodenal administration of 50 mg/kg of the compounds of code numbers 72143 and 7251 bring about a 70% and 65% reduction respectively of the Shay ulcer.

urinary elimination = experiment: Diuretic: volume of urine in mouse; assay type: in vivo; settings: 4 hours, versus controls, read-out: Percentage increase in urinary elimination; for change in vivo at 50 mg/kg: 50 mg/kg/PO
Procedure: The compounds of formula (I) administered orally to a mouse simultaneously with a volume of 1 ml of sodium chloride isotonic solute per 25 g of body weight are able to cause an increase of the volume of urine given compared with controls, this volume being measured for the 4 hours following administration.

[5] = Acute toxicity / mortality, oral, mice; assay type: in vivo; settings: mouse, in vivo; for mortality: read-out: Percentage of mortality with mice; for LD50: mice, oral, Table XI, read-out: LD50 (mice)
From the text: (§1) As is shown by the preceding results and by those given in Table XIV below, the difference between pharmacologically active doses and lethal doses is sufficiently great to allow the use of compounds of formula (I) in therapeutics.

mice = experiment: Acute toxicity / mortality, oral, mice; assay type: in vivo; settings: oral; Table XII
From the text: as §1

[6] = system: ptosis caused by reserpine; experiment: Anti-depressive: antagonism against ptosis caused by intravenous reserpine; assay type: in vivo; settings: for ED50: po, Table XII, read-out: Antagonism against ptosis caused by reserpine, DE50
Procedure: (§2) In this regard, the compounds of formula I differ unexpectedly from the compounds of U.S. Pat. No. 3,726,900, as shown by comparative testing.
(§3) The anti-depressive properties of additional analog compounds were tested by the same tests. In these tests, the comparison compounds had the formula [drawing 28] The specific compounds tested and the test results are indicated in Table XIII.

[7] = system: coronary vessels of the isolated heart of a guinea pig; experiment: Vasodilatory: flow in coronary vessels of isolated heart of a guinea pig; settings: 0.5 μg/ml in perfusion liquid
Procedure: The compounds of formula (I) are able to increase the flow in the coronary vessels of the isolated heat of a guinea pig when they are added to the perfusion liquid of this organ. As an example, by adding 0.5 μg/ml of the compound code number 71562 to the perfusion liquid of the isolated heart of a guinea pig, a 45% increase in the flow of the coronary vessels was observed.

[8] = system: explorations in the escape enclosure; experiment: Sedative: number of explorations in the escape enclosure, mouse; assay type: in vivo; settings: 100 mg/kg/PO
Procedure: The compounds of formula (I) administered orally to a mouse reduce the number of explorations in the escape enclosure. As examples, the administration of 100 mg/kg/PO of the compounds of code numbers 71562 and 72142 bring about a 40% reduction in the number of explorations in the escape enclosure in each case.

[9] = system: isolated fundus of rats (serotonine); experiment: Antiserotonine: contractions of the isolated fundus of rats provoked by serotonine; settings: in vitro
From the text: (§4) For purposes of comparison, compounds of the formula (I) were compared, as to their antiserotonine properties, with a respresentative sampling of compounds disclosed in U.S. Pat. No. 3,726,900. The comparison compounds tested have the formula [drawing 23]

[10] = system: bronchoconstrictions provoked by serotonine; experiment: Antiserotonine: bronchoconstrictions provoked by intravenous serotonine in guinea pigs (Konzett and Rossler test); assay type: in vivo; settings: Cavia porcellus, serotonine bronchoconstriction, read-out: Test of Konzett and Rossler DE50
From the text: as §4

[11] = system: lethal effect of yohimbine; experiment: Anti-depressive: potentialization of lethal effect of yohimbine; assay type: in vivo; settings: Table XII
[12] = system: isolated ileum of a guinea pig (histamine); experiment: Antihistamine: contraction by histamine of isolated ileum of a guinea pig
Procedure: The compounds of formula (I) introduced in the survival medium are able to oppose the contracting action of histamine on the isolated ileum of a guinea pig. This activity is calculated by the DE50 of the tested compounds.

[13] = system: lethal effect of yohimbine; experiment: Anti-depressive: potentialization of lethal effect of yohimbine; assay type: in vivo; settings: at 100 mg/kg/PO
Procedure: as §2, §3

[14] = system: cough caused by stimulation of the upper laryngeal nerve; experiment: Anti-cough: cough caused by stimulation of the upper laryngeal nerve in an anaesthetized cat; assay type: in vivo; settings: 25 mg/kg/ID
[15] = system: respiratory depression caused by morphine; experiment: Respiratory analeptic: respiratory depression caused by morphine in anaesthetized guinea pig; assay type: in vivo; settings: 5 mg/kg/IV
Procedure: The compounds of formula (I) administered intravenously to an anaesthetized guinea pig are capable of opposing respiratory depression caused by morphine. As an example, with a dose of 5 mg/kg/IV, compound 70358 increased respiratory frequency by 65%.

[16] = system: local edema caused by carraghenine; experiment: Antiinflammatory: local plantar edema caused by carraghenine in rat; assay type: in vivo; settings: 30 mg/kg/PO
From the text: These properties bring about a reduction of the local edema, caused by injecting a rat under the plantar with a phlogogenic agent such as carraghenine, following oral administration of compounds of formula (I).

[17] = at 50 mg/kg/PO, result in words

CN(C)C(=O)CN1CCN(CC2COC3(O2)c2ccccc2C=Cc2ccccc23)CC1 (centres unmarked) [compound 7251]
DE50 (spasmolytic) [1]: 3.50 µg/mL | inhibition in vivo at 100 mg/kg [2]: 50% | ED50 [3]: 100 mg/kg | Reduction of the Shay ulcer [4]: 65% | change in vivo at 50 mg/kg (urinary elimination): 45% | mortality ([5]; 2000 mg/kg/PO): 0% | LD50 [5]: > 2000 mg/kg | LD50 (mice): > 2000 mg/kg/P.O. | Antagonism against ptosis caused by reserpine [6, 17]: Inactive

O=C(CN1CCN(CC2COC3(O2)c2ccccc2C=Cc2ccccc23)CC1)N1CCCC1 (centres unmarked) [compound 71562]
inhibition in vivo at 100 mg/kg [2]: 47% | Increase in the flow of the coronary vessels [7]: 45% | ED50 [3]: 125 mg/kg | Reduction in the number of explorations in the escape enclosure [8]: 40% | change in vivo at 50 mg/kg (urinary elimination): 70% | Antagonisms against contractions of fundus of rat, DE50 [9]: 0.1 µg/mL | mortality ([5]; 2000 mg/kg/PO): ~50% | LD50 [5]: 2000 mg/kg

CN(C)CC1COC2(O1)c1ccccc1C=Cc1ccccc12 (centres unmarked) [compound 70312, reference compound]
ED50 [10]: 0.43 mg/kg | LD50 [5]: 480 mg/kg | ED50 [6]: 13 mg/kg | Potentialization of lethal effect of yohimbine, DE50 [11]: 46 mg/kg/PO

CCCNC(=O)CN1CCN(CC2COC3(O2)c2ccccc2C=Cc2ccccc23)CC1 (centres unmarked) [compound 72142]
DE50 (spasmolytic) [1]: 2.50 µg/mL | inhibition in vivo at 100 mg/kg [2]: 70% | ED50 [3]: 85 mg/kg | Antihistamine activity DE50 [12]: 0.6 µg/mL | Reduction in the number of explorations in the escape enclosure [8]: 40% | change in vivo at 50 mg/kg (urinary elimination): 55% | ED50 [10]: 0.6 mg/kg | mortality ([5]; 1650 mg/kg/PO): ~50% | LD50 [5]: 1650 mg/kg | Antagonism against ptosis caused by reserpine ([6]; at 100 mg/kg/PO): Inactive | Potentialization of lethal effect of yohimbine [13]: 40%

CN(C)CC1COC2(O1)c1ccccc1CCc1ccccc12 (centres unmarked) [compound 69257, reference compound]
ED50 [10]: 0.4 mg/kg | LD50 [5]: 550 mg/kg | ED50 [6]: 35 mg/kg | Potentialization of lethal effect of yohimbine, DE50 [11]: 10 mg/kg/PO

CN1CCN(CC2COC3(O2)c2ccccc2CCc2ccccc23)CC1 (centres unmarked) [compound 70358]
Reduction of cough, duration [14]: > 60 mm | Reduction of cough, intensity [14]: 100% | Spasmolytic activity ([1]; relative to papaverine as the standard): 1.5 × papaverine | inhibition in vivo at 100 mg/kg [2]: 43% | Increase in respiratory frequency [15]: 65% | mortality ([5]; 1000 mg/kg/PO): ~50% | LD50 [5]: 1000 mg/kg | Antagonism against ptosis caused by reserpine ([6]; at 100 mg/kg/PO): Inactive | Potentialization of lethal effect of yohimbine [13]: 40%

CN1CCN(CC2COC3(O2)c2ccccc2C=Cc2ccccc23)CC1 (centres unmarked) [compound 72143]
DE50 (spasmolytic) [1]: 3.75 µg/mL | Percentage reduction of the edema [16]: 70% | Reduction of the Shay ulcer [4]: 70% | Antihistamine activity DE50 [12]: 0.25 µg/mL | change in vivo at 25 mg/kg (urinary elimination; 25 mg/kg/PO): 70% | mortality ([5]; 300 mg/kg/PO): ~50% | LD50 [5]: 300 mg/kg | Antagonism against ptosis caused by reserpine [6, 17]: Inactive
